Species: Rattus norvegicus
Assay: DrugMatrix - Regimen: Daily Repeat
Format: toxicity, organism-based, Sprague-Dawley
Design: regimen Daily Repeat, gender Male, age 6-8 weeks
Details: in vivo, po, route oral GAVAGE, vehicle .5 % CMC; for URIC ACID / ALANINE AMINOTRANSFERASE / ALBUMIN / ALKALINE PHOSPHATASE / ASPARTATE AMINOTRANSFERASE / BLOOD UREA NITROGEN / CARBON DIOXIDE / CHLORIDE / CHOLESTEROL / CREATINE PHOSPHOKINASE / CREATININE / GLUCOSE / LACTATE DEHYDROGENASE / LIPASE / PHOSPHORUS / POTASSIUM / SODIUM / TOTAL BILIRUBIN / TOTAL PROTEIN: tissue Plasma; for ABSOLUTE BASOPHIL / ABSOLUTE EOSINOPHIL / ABSOLUTE LYMPHOCYTE / ABSOLUTE MONOCYTE / ABSOLUTE SEGMENTED NEUTROPHIL / BASOPHIL / EOSINOPHIL / ERYTHROCYTE COUNT / HEMATOCRIT / HEMOGLOBIN / LEUKOCYTE COUNT / LYMPHOCYTE / MEAN CORPUSCULAR HEMOGLOBIN / MEAN CORPUSCULAR HEMOGLOBIN CONCENTRATION / MEAN CORPUSCULAR VOLUME / MONOCYTE / NEUTROPHIL / NUCLEATED RED BLOOD CELLS / PLATELET COUNT: tissue Blood
[1] = 250 mg/kg, 120 h, dose level High, time 5 day
[2] = […], 72 h, dose 0.25 mg/Kg, dose level Low, time 3 day
[3] = […], 120 h, dose 0.25 mg/Kg, dose level Low, time 5 day

With `C#C[C@]1(O)CC[C@H]2[C@@H]3CCc4cc(OC)ccc4[C@H]3CC[C@@]21C` [MESTRANOL] the “URIC ACID” value (250 mg/kg, 72 h, dose level High, time 3 day) was 1.23 mg/dL, the “ABSOLUTE BASOPHIL” value [1] was 0 CELLS/uL and the “ABSOLUTE EOSINOPHIL” value [1] was 0 CELLS/uL. The “ABSOLUTE LYMPHOCYTE” value [1] was 11929 CELLS/uL, the “ABSOLUTE MONOCYTE” value [1] was 0 CELLS/uL and the “ABSOLUTE SEGMENTED NEUTROPHIL” value [1] was 1137.67 CELLS/uL. The BASOPHIL [1] was 0%, the EOSINOPHIL [1] was 0% and the “ERYTHROCYTE COUNT” value [1] was 6.07 x10E6/uL. The HEMATOCRIT [1] was 37.27%, the HEMOGLOBIN [1] was 14.37 G/DL and the “LEUKOCYTE COUNT” value [1] was 13.07 x10E3/uL. For the same compound, the LYMPHOCYTE [1] was 91.33%, the “MEAN CORPUSCULAR HEMOGLOBIN” value [1] was 23.67 pg and the “MEAN CORPUSCULAR HEMOGLOBIN CONCENTRATION” value [1] was 38.53 G/DL. The “MEAN CORPUSCULAR VOLUME” value [1] was 61.37 fL, the MONOCYTE [1] was 0% and the NEUTROPHIL [1] was 8.67%. For the same compound, the “NUCLEATED RED BLOOD CELLS” value [1] was 0 /100WBC, the “PLATELET COUNT” value [1] was 1600 x10E3/uL and the “ALANINE AMINOTRANSFERASE” value [1] was 72.67 u/L. The ALBUMIN [1] was 4.13 G/DL, the “ALKALINE PHOSPHATASE” value [1] was 667.33 u/L and the “ASPARTATE AMINOTRANSFERASE” value [1] was 77.67 u/L. The “BLOOD UREA NITROGEN” value [1] was 14.67 mg/dL, the “CARBON DIOXIDE” value [1] was 23.67 mmol/L and the CHLORIDE [1] was 102 MEQ/L. For the same compound, the CHOLESTEROL [1] was 4.67 mg/dL, the “CREATINE PHOSPHOKINASE” value [1] was 223.67 u/L and the CREATININE [1] was 0.14 mg/dL. The GLUCOSE [1] was 117 mg/dL, the “LACTATE DEHYDROGENASE” value [1] was 394.67 u/L and the LIPASE [1] was 7.33 u/L. The PHOSPHORUS [1] was 10.63 mg/dL, the POTASSIUM [1] was 6.65 MEQ/L and the SODIUM [1] was 145.1 MEQ/L. The “TOTAL BILIRUBIN” value [1] was 0.13 mg/dL, the “URIC ACID” value [1] was 1.63 mg/dL and the “ABSOLUTE BASOPHIL” value [2] was 0 CELLS/uL. The “ABSOLUTE EOSINOPHIL” value [2] was 68.33 CELLS/uL, the “ABSOLUTE LYMPHOCYTE” value [2] was 15182.67 CELLS/uL and the “ABSOLUTE MONOCYTE” value [2] was 0 CELLS/uL. For the same compound, the “ABSOLUTE SEGMENTED NEUTROPHIL” value [2] was 1349 CELLS/uL, the BASOPHIL [2] was 0% and the EOSINOPHIL [2] was 0.33%. The “ERYTHROCYTE COUNT” value [2] was 5.73 x10E6/uL, the HEMATOCRIT [2] was 36.73% and the HEMOGLOBIN [2] was 14.03 G/DL. For the same compound, the “LEUKOCYTE COUNT” value [2] was 16.6 x10E3/uL, the LYMPHOCYTE [2] was 91.67% and the “MEAN CORPUSCULAR HEMOGLOBIN” value [2] was 24.5 pg. For the same compound, the “MEAN CORPUSCULAR HEMOGLOBIN CONCENTRATION” value [2] was 38.17 G/DL, the “MEAN CORPUSCULAR VOLUME” value [2] was 64.17 fL and the MONOCYTE [2] was 0%. The NEUTROPHIL [2] was 8%, the “NUCLEATED RED BLOOD CELLS” value [2] was 0 /100WBC and the “PLATELET COUNT” value [2] was 1226 x10E3/uL. For the same compound, the “ALANINE AMINOTRANSFERASE” value [2] was 51.33 u/L, the ALBUMIN [2] was 4.37 G/DL and the “ALKALINE PHOSPHATASE” value [2] was 522.67 u/L. For the same compound, the “ASPARTATE AMINOTRANSFERASE” value [2] was 83.67 u/L, the “BLOOD UREA NITROGEN” value [2] was 12.67 mg/dL and the “CARBON DIOXIDE” value [2] was 28 mmol/L. The CHLORIDE [2] was 101.67 MEQ/L, the CHOLESTEROL [2] was 36 mg/dL and the “CREATINE PHOSPHOKINASE” value [2] was 348.33 u/L. For the same compound, the CREATININE [2] was 0.27 mg/dL, the GLUCOSE [2] was 135.67 mg/dL and the “LACTATE DEHYDROGENASE” value [2] was 453.33 u/L. It also gave an LIPASE [2] of 7.67 u/L, a PHOSPHORUS [2] of 11.2 mg/dL and a POTASSIUM [2] of 6.61 MEQ/L. For the same compound, the SODIUM [2] was 145.07 MEQ/L, the “TOTAL BILIRUBIN” value [2] was 0.23 mg/dL and the “TOTAL PROTEIN” value [2] was 6.23 G/DL. The “URIC ACID” value [2] was 1.33 mg/dL, the “ABSOLUTE BASOPHIL” value [3] was 0 CELLS/uL and the “ABSOLUTE EOSINOPHIL” value [3] was 139.33 CELLS/uL. The “ABSOLUTE LYMPHOCYTE” value [3] was 14510.33 CELLS/uL, the “ABSOLUTE MONOCYTE” value [3] was 98 CELLS/uL and the “ABSOLUTE SEGMENTED NEUTROPHIL” value [3] was 652.33 CELLS/uL. For the same compound, the BASOPHIL [3] was 0%, the EOSINOPHIL [3] was 1% and the “ERYTHROCYTE COUNT” value [3] was 5.62 x10E6/uL. The HEMATOCRIT [3] was 35.57%, the HEMOGLOBIN [3] was 14.03 G/DL and the “LEUKOCYTE COUNT” value [3] was 15.4 x10E3/uL. The LYMPHOCYTE [3] was 94.33%, the “MEAN CORPUSCULAR HEMOGLOBIN” value [3] was 25.13 pg and the “MEAN CORPUSCULAR HEMOGLOBIN CONCENTRATION” value [3] was 39.5 G/DL. For the same compound, the “MEAN CORPUSCULAR VOLUME” value [3] was 63.6 fL, the MONOCYTE [3] was 0.67% and the NEUTROPHIL [3] was 4%. The “NUCLEATED RED BLOOD CELLS” value [3] was 0 /100WBC, the “PLATELET COUNT” value [3] was 1110.33 x10E3/uL and the “ALANINE AMINOTRANSFERASE” value [3] was 49.33 u/L. The ALBUMIN [3] was 3.97 G/DL, the “ALKALINE PHOSPHATASE” value [3] was 553.33 u/L and the “ASPARTATE AMINOTRANSFERASE” value [3] was 70.67 u/L. The “BLOOD UREA NITROGEN” value [3] was 19.33 mg/dL, the “CARBON DIOXIDE” value [3] was 26.67 mmol/L and the CHLORIDE [3] was 102.67 MEQ/L. For the same compound, the CHOLESTEROL [3] was 31.33 mg/dL, the “CREATINE PHOSPHOKINASE” value [3] was 297.67 u/L and the CREATININE [3] was 0.26 mg/dL. For the same compound, the GLUCOSE [3] was 141.33 mg/dL, the “LACTATE DEHYDROGENASE” value [3] was 123.67 u/L and the LIPASE [3] was 7.33 u/L. It also gave a PHOSPHORUS [3] of 11.23 mg/dL, a POTASSIUM [3] of 6.54 MEQ/L and an SODIUM [3] of 144.33 MEQ/L. The “TOTAL BILIRUBIN” value [3] was 0.27 mg/dL, the “TOTAL PROTEIN” value [3] was 6 G/DL and the “URIC ACID” value [3] was 1.13 mg/dL.

Reference: ChEMBL document CHEMBL3885881, “DrugMatrix”
